# Results taken from PubChem BioAssay AID330 (DTP/NCI, 2004).
# Where “and” joins values, the source holds several entries; their conditions need not be identical. Equal entries are not always repeated. Inconclusive results and toxic doses are left out.
# System: P388 leukemia ip, CD2F1 mice, survival T/C
# Test: NCI In Vivo Anticancer Drug Screen. Data for tumor model P388 Leukemia (intraperitoneal) in CD2F1 (CDF1) mice
# Conditions: endpoint: median survival time, higher = longer survival
# Summary of the method: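 Mice carrying the transplanted tumor received test compound or vehicle. Survival was recorded in each group, and the value is the treated-group measurement divided by that of the vehicle-treated control group.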
# [1] = dose: 50.0 mg/kg/injection, schedule: Q01DX009 (ip), vehicle: Klucel (hydroxypropylcellulose) (HPC)
# [2] = dose: 100.0 mg/kg/injection, schedule: Q01DX009 (ip), vehicle: Klucel (hydroxypropylcellulose) (HPC)
# [3] = dose: 200.0 mg/kg/injection, schedule: Q01DX009 (ip), vehicle: Klucel (hydroxypropylcellulose) (HPC)
# [4] = dose: 25.0 mg/kg/injection, schedule: Q01DX009 (ip), vehicle: saline
# [5] = dose: 50.0 mg/kg/injection, schedule: Q01DX009 (ip), vehicle: saline
# [6] = dose: 100.0 mg/kg/injection, schedule: Q01DX009 (ip), vehicle: saline
# [7] = dose: 12.5 mg/kg/injection, schedule: Q01DX009 (ip), vehicle: saline with Tween-80
# [8] = dose: 25.0 mg/kg/injection, schedule: Q01DX009 (ip), vehicle: saline with Tween-80
# [9] = dose: 50.0 mg/kg/injection, schedule: Q01DX009 (ip), vehicle: saline with Tween-80
# [10] = dose: 100.0 mg/kg/injection, schedule: Q04DX002 (ip), vehicle: saline
# [11] = dose: 60.0 mg/kg/injection, schedule: Q01DX005 (ip), vehicle: saline with Tween-80
# [12] = dose: 120.0 mg/kg/injection, schedule: Q01DX005 (ip), vehicle: saline with Tween-80
# [13] = dose: 240.0 mg/kg/injection, schedule: Q01DX005 (ip), vehicle: saline with Tween-80
structure (smiles),measurement,setting,value
CCCCC/C=C\C/C=C\CCCCCCCC(=O)O,T/C,[1],93 % of control
same,T/C,[2],112 % of control
same,T/C,[3],107 % of control
same,T/C,"dose: 400.0 mg/kg/injection, schedule: Q01DX009 (ip), vehicle: Klucel (hydroxypropylcellulose) (HPC)",101 % of control
CC(C)(C)N(N)Cc1ccccc1,T/C,[4],99 % of control
same,T/C,[5],104 % of control
same,T/C,[6],104 % of control
Cc1ccccc1NCC#N,T/C,[7],100 % of control
same,T/C,[8],100 % of control
same,T/C,[9],104 % of control
NC(=O)CC1(O)CCCCC1,T/C,[4],100 % of control
same,T/C,[5],100 % of control
same,T/C,[6],100 % of control
NC(=O)CSCC(=O)c1ccccc1,T/C,"dose: 50.0 mg/kg/injection, schedule: Q01DX005 (ip), vehicle: saline with Tween-80",102 % of control
same,T/C,"dose: 100.0 mg/kg/injection, schedule: Q01DX005 (ip), vehicle: saline with Tween-80",107 % of control
same,T/C,"dose: 200.0 mg/kg/injection, schedule: Q01DX005 (ip), vehicle: saline with Tween-80",102 % of control
COc1cccc2c1C(=O)c1c(O)c3c(c(O)c1C2=O)C[C@@](O)(C(C)=O)C[C@@H]3OC1CC([N+]([O-])(Cc2ccccc2)Cc2ccccc2)C(O)C(C)O1 (some centres undefined),T/C,"dose: 3.13 mg/kg/injection, schedule: Q04DX003 (ip), vehicle: distilled water + Tween-80",114 % of control
same,T/C,"dose: 6.25 mg/kg/injection, schedule: Q04DX003 (ip), vehicle: distilled water + Tween-80",108 % of control and 121 % of control
same,T/C,"dose: 12.5 mg/kg/injection, schedule: Q04DX003 (ip), vehicle: distilled water + Tween-80",123 % of control
same,T/C,"dose: 25.0 mg/kg/injection, schedule: Q04DX003 (ip), vehicle: distilled water + Tween-80",150 % of control and 183 % of control
same,T/C,"dose: 50.0 mg/kg/injection, schedule: Q04DX003 (ip), vehicle: distilled water + Tween-80",185 % of control and 212 % of control
same,T/C,"dose: 100.0 mg/kg/injection, schedule: Q04DX003 (ip), vehicle: distilled water + Tween-80",237 % of control
[Cl][Pt+2][Cl].[NH-]Cc1ccccc1[NH-],T/C,"dose: 6.25 mg/kg/injection, schedule: Q04DX002 (ip), vehicle: saline with Tween-80",164 % of control
same,T/C,"dose: 12.5 mg/kg/injection, schedule: Q04DX002 (ip), vehicle: saline with Tween-80",164 % of control
same,T/C,"dose: 25.0 mg/kg/injection, schedule: Q04DX002 (ip), vehicle: saline with Tween-80",167 % of control
O=c1ccc(N=Nc2cccc([N+](=O)[O-])c2)ccc1O,T/C,[8],107 % of control
same,T/C,[9],104 % of control
same,T/C,"dose: 100.0 mg/kg/injection, schedule: Q01DX009 (ip), vehicle: saline with Tween-80",104 % of control
CN(C)c1ccc(C2OC2C(=O)n2ccc(=O)n(C(=O)C3OC3c3ccc(N(C)C)cc3)c2=O)cc1 (centres undefined),T/C,[10],101 % of control
same,T/C,"dose: 200.0 mg/kg/injection, schedule: Q04DX002 (ip), vehicle: saline",100 % of control
same,T/C,"dose: 400.0 mg/kg/injection, schedule: Q04DX002 (ip), vehicle: saline",97 % of control
CC(=O)SSC12CC3CC(CC(C3)C1)C2,T/C,"dose: 30.0 mg/kg/injection, schedule: Q01DX005 (ip), vehicle: saline with Tween-80",100 % of control
same,T/C,[11],100 % of control and 101 % of control
same,T/C,[12],100 % of control and 104 % of control
Cc1oc2ccccc2c(=O)c1CN1CCN(c2ccccn2)CC1,T/C,"dose: 60.0 mg/kg/injection, schedule: Q01DX005 (ip), vehicle: saline",101 % of control
same,T/C,"dose: 120.0 mg/kg/injection, schedule: Q01DX005 (ip), vehicle: saline",101 % of control
CNC(=S)Sc1c(Cl)c(Cl)c(Cl)c(Cl)c1Cl,T/C,[1],108 % of control
same,T/C,[2],108 % of control
same,T/C,[3],99 % of control
C[n+]1cccc(C2=CCCC2)c1,T/C,"dose: 3.13 mg/kg/injection, schedule: Q01DX009 (ip), vehicle: saline",109 % of control
same,T/C,"dose: 6.25 mg/kg/injection, schedule: Q01DX009 (ip), vehicle: saline",100 % of control
same,T/C,"dose: 12.5 mg/kg/injection, schedule: Q01DX009 (ip), vehicle: saline",100 % of control
same,T/C,"dose: 12.5 mg/kg/injection, schedule: Q04DX003 (ip), vehicle: water",102 % of control
same,T/C,[4],100 % of control
same,T/C,"dose: 25.0 mg/kg/injection, schedule: Q04DX003 (ip), vehicle: saline with Tween-80",93 % of control
same,T/C,"dose: 25.0 mg/kg/injection, schedule: Q04DX003 (ip), vehicle: water",97 % of control
same,T/C,"dose: 50.0 mg/kg/injection, schedule: Q04DX003 (ip), vehicle: saline with Tween-80",92 % of control
same,T/C,"dose: 100.0 mg/kg/injection, schedule: Q04DX003 (ip), vehicle: saline with Tween-80",97 % of control
same,T/C,"dose: 200.0 mg/kg/injection, schedule: Q04DX003 (ip), vehicle: saline with Tween-80",105 % of control
CCN=NNc1ccc(C(C)=O)cc1,T/C,"dose: 12.5 mg/kg/injection, schedule: Q01DX009 (ip), vehicle: distilled water + Tween-80",95 % of control
same,T/C,"dose: 25.0 mg/kg/injection, schedule: Q01DX009 (ip), vehicle: distilled water + Tween-80",109 % of control and 90 % of control
same,T/C,"dose: 50.0 mg/kg/injection, schedule: Q01DX009 (ip), vehicle: distilled water + Tween-80",109 % of control and 92 % of control
same,T/C,"dose: 100.0 mg/kg/injection, schedule: Q01DX009 (ip), vehicle: distilled water + Tween-80",104 % of control
Nc1nc(SCc2ccccc2)sc1C(=O)N1CCCCC1,T/C,[1],100 % of control
same,T/C,[2],100 % of control
same,T/C,[3],101 % of control
CN(C)c1ccc(CN(Cc2ccccc2)CC(O)c2ccccc2)cc1 (centres undefined),T/C,"dose: 6.25 mg/kg/injection, schedule: Q01DX009 (ip), vehicle: saline with Tween-80",97 % of control
same,T/C,[7],100 % of control
same,T/C,[8],100 % of control
same,T/C,[9],102 % of control
Cc1c(/C=C/c2oc3ccc(C(=N)N)cc3c2C)oc2ccc(C(=N)N)cc12,T/C,[10],124 % of control
CCC(C)OC(=Nc1cccc2ccccc12)Nc1cccc2ccccc12 (centres undefined),T/C,[11],92 % of control
same,T/C,[12],93 % of control
same,T/C,[13],93 % of control
COc1cc(Br)c(C(=O)N2CCc3ccccc32)cc1OC,T/C,"dose: 12.5 mg/kg/injection, schedule: Q01DX009 (ip), vehicle: other",93 % of control
same,T/C,"dose: 25.0 mg/kg/injection, schedule: Q01DX009 (ip), vehicle: other",90 % of control
CC12OC(=O)CC1OC2(c1ccccc1)c1ccccc1 (centres undefined),T/C,[11],96 % of control
same,T/C,[12],93 % of control
same,T/C,[13],90 % of control
